Source: PubChem BioAssay AID256 (DTP/NCI, 2004)
Several values for one entry are separate records, joined by “and”; a condition that tells them apart may be missing. Equal values may be shown once. Inconclusive results and toxic doses are left out. The calls were made as follows: active = survival T/C of 150% or more; inactive = T/C below 125% in these data.

System: CD2F1 mice, L1210 leukemia ip, survival T/C
Test: NCI In Vivo Anticancer Drug Screen. Data for tumor model L1210 Leukemia (intraperitoneal) in CD2F1 (CDF1) mice
Settings: higher = longer survival
Method in brief: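 Tumor-bearing mice (transplanted tumor) were split into treated and vehicle control groups, and the measured endpoint of each treated group was divided by that of its vehicle controls.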

[1] = endpoint: mean survival time, dose: 100.0 mg/kg/injection, schedule: Q04DX003 (ip), vehicle: saline with Tween-80
[2] = endpoint: mean survival time, dose: 200.0 mg/kg/injection, schedule: Q04DX003 (ip), vehicle: saline with Tween-80
[3] = endpoint: mean survival time, dose: 400.0 mg/kg/injection, schedule: Q04DX003 (ip), vehicle: saline with Tween-80
[4] = endpoint: mean survival time, dose: 100.0 mg/kg/injection, schedule: Q01DX009 (ip), vehicle: saline with Tween-80

Measured: T/C

CSc1cccc(NC2=NCCO2)c1
inactive: [1] 90 % of control | [2] 93 % of control | [3] 86 % of control

CC1(C)N=C(N)N=C(N)N1c1ccc(CCCCc2ccc(S(=O)(=O)F)cc2Cl)c(Cl)c1
inactive: endpoint: mean survival time, dose: 2.59 mg/kg/injection, schedule: Q01DX009 (ip), vehicle: Klucel (hydroxypropylcellulose) (HPC) 105 % of control | endpoint: mean survival time, dose: 4.32 mg/kg/injection, schedule: Q01DX009 (ip), vehicle: Klucel (hydroxypropylcellulose) (HPC) 105 % of control | endpoint: mean survival time, dose: 7.2 mg/kg/injection, schedule: Q01DX009 (ip), vehicle: Klucel (hydroxypropylcellulose) (HPC) 116 % of control | endpoint: mean survival time, dose: 7.5 mg/kg/injection, schedule: Q01DX009 (ip), vehicle: Klucel (hydroxypropylcellulose) (HPC) 100 % of control | endpoint: mean survival time, dose: 12.5 mg/kg/injection, schedule: Q01DX009 (ip), vehicle: saline with Tween-80 117 % of control | endpoint: mean survival time, dose: 15.0 mg/kg/injection, schedule: Q01DX009 (ip), vehicle: Klucel (hydroxypropylcellulose) (HPC) 104 % of control | endpoint: mean survival time, dose: 30.0 mg/kg/injection, schedule: Q01DX009 (ip), vehicle: Klucel (hydroxypropylcellulose) (HPC) 113 % of control | endpoint: mean survival time, dose: 50.0 mg/kg/injection, schedule: Q04DX003 (ip), vehicle: saline 103 % of control | endpoint: mean survival time, dose: 60.0 mg/kg/injection, schedule: Q01DX009 (ip), vehicle: Klucel (hydroxypropylcellulose) (HPC) 115 % of control | endpoint: mean survival time, dose: 75.0 mg/kg/injection, schedule: Q04DX003 (ip), vehicle: saline 104 % of control | [4] 97 % of control | endpoint: mean survival time, dose: 110.0 mg/kg/injection, schedule: Q04DX003 (ip), vehicle: saline 121 % of control and 105 % of control | endpoint: mean survival time, dose: 300.0 mg/kg/injection, schedule: Q04DX003 (ip), vehicle: saline with Tween-80 107 % of control
active: endpoint: mean survival time, dose: 133.0 mg/kg/injection, schedule: Q04DX003 (ip), vehicle: saline with Tween-80 158 % of control | endpoint: median survival time, dose: 27.0 mg/kg/injection, schedule: Q01DX009 (ip), vehicle: saline with Tween-80 156 % of control | endpoint: median survival time, dose: 40.0 mg/kg/injection, schedule: Q01DX009 (ip), vehicle: saline with Tween-80 156 % of control and 162 % of control | endpoint: median survival time, dose: 60.0 mg/kg/injection, schedule: Q01DX009 (ip), vehicle: saline with Tween-80 158 % of control | endpoint: median survival time, dose: 90.0 mg/kg/injection, schedule: Q01DX009 (ip), vehicle: saline with Tween-80 168 % of control | endpoint: median survival time, dose: 200.0 mg/kg/injection, schedule: Q04DX003 (ip), vehicle: saline with Tween-80 167 % of control | endpoint: median survival time, dose: 225.0 mg/kg/injection, schedule: Q04DX003 (ip), vehicle: saline with Tween-80 164 % of control

O=C(Nc1ccc2c(c1)Cc1cc(Br)ccc1-2)C(F)(F)F
inactive: [1] 101 % of control | [2] 97 % of control | [3] 101 % of control

C=COCC(C)C (tested in a mixture with another compound)
inactive: endpoint: mean survival time, dose: 0.78 mg/kg/injection, schedule: Q01DX009 (ip), vehicle: Klucel (hydroxypropylcellulose) (HPC) 93 % of control | endpoint: mean survival time, dose: 1.56 mg/kg/injection, schedule: Q01DX009 (ip), vehicle: Klucel (hydroxypropylcellulose) (HPC) 90 % of control | endpoint: mean survival time, dose: 1.56 mg/kg/injection, schedule: Q01DX009 (ip), vehicle: saline with Tween-80 86 % of control | endpoint: mean survival time, dose: 1.56 mg/kg/injection, schedule: Q04DX003 (ip), vehicle: other 109 % of control | endpoint: mean survival time, dose: 3.12 mg/kg/injection, schedule: Q01DX009 (ip), vehicle: Klucel (hydroxypropylcellulose) (HPC) 88 % of control | endpoint: mean survival time, dose: 3.12 mg/kg/injection, schedule: Q04DX003 (ip), vehicle: other 91 % of control | endpoint: mean survival time, dose: 3.13 mg/kg/injection, schedule: Q01DX009 (ip), vehicle: saline with Tween-80 92 % of control | endpoint: mean survival time, dose: 4.67 mg/kg/injection, schedule: Q01DX009 (ip), vehicle: Klucel (hydroxypropylcellulose) (HPC) 98 % of control | endpoint: mean survival time, dose: 6.25 mg/kg/injection, schedule: Q01DX009 (ip), vehicle: saline with Tween-80 94 % of control | endpoint: mean survival time, dose: 7.09 mg/kg/injection, schedule: Q01DX009 (ip), vehicle: Klucel (hydroxypropylcellulose) (HPC) 98 % of control | endpoint: mean survival time, dose: 10.6 mg/kg/injection, schedule: Q01DX009 (ip), vehicle: Klucel (hydroxypropylcellulose) (HPC) 93 % of control | endpoint: mean survival time, dose: 12.5 mg/kg/injection, schedule: Q04DX003 (ip), vehicle: saline with Tween-80 87 % of control | endpoint: mean survival time, dose: 15.8 mg/kg/injection, schedule: Q01DX009 (ip), vehicle: alcohol 96 % of control | endpoint: mean survival time, dose: 18.8 mg/kg/injection, schedule: Q01DX009 (ip), vehicle: saline 111 % of control | endpoint: mean survival time, dose: 24.0 mg/kg/injection, schedule: Q01DX009 (ip), vehicle: alcohol 88 % of control | endpoint: mean survival time, dose: 35.0 mg/kg/injection, schedule: Q01DX009 (ip), vehicle: alcohol 97 % of control | endpoint: mean survival time, dose: 37.5 mg/kg/injection, schedule: Q01DX009 (ip), vehicle: saline 111 % of control | endpoint: mean survival time, dose: 100.0 mg/kg/injection, schedule: Q01DX001 (ip), vehicle: saline with Tween-80 113 % of control | endpoint: mean survival time, dose: 200.0 mg/kg/injection, schedule: Q01DX001 (ip), vehicle: saline with Tween-80 109 % of control | endpoint: mean survival time, dose: 400.0 mg/kg/injection, schedule: Q01DX001 (ip), vehicle: saline with Tween-80 95 % of control

c1cncc(-c2nc3ccccc3s2)c1
inactive: endpoint: mean survival time, dose: 100.0 mg/kg/injection, schedule: Q04DX003 (ip), vehicle: Klucel (hydroxypropylcellulose) (HPC) 103 % of control | endpoint: mean survival time, dose: 200.0 mg/kg/injection, schedule: Q04DX003 (ip), vehicle: Klucel (hydroxypropylcellulose) (HPC) 100 % of control | endpoint: mean survival time, dose: 400.0 mg/kg/injection, schedule: Q04DX003 (ip), vehicle: Klucel (hydroxypropylcellulose) (HPC) 100 % of control

COC(=O)/C=C/N(CCF)CCF
inactive: endpoint: mean survival time, dose: 1.0 mg/kg/injection, schedule: Q01DX Z (ip), vehicle: saline 94 % of control | endpoint: mean survival time, dose: 3.0 mg/kg/injection, schedule: Q01DX Z (ip), vehicle: saline 108 % of control

CCOC(=O)NCNC(C)C(=O)O (centres undefined)
inactive: endpoint: mean survival time, dose: 50.0 mg/kg/injection, schedule: Q01DX009 (ip), vehicle: saline 115 % of control | endpoint: mean survival time, dose: 100.0 mg/kg/injection, schedule: Q01DX009 (ip), vehicle: saline 104 % of control | endpoint: mean survival time, dose: 200.0 mg/kg/injection, schedule: Q01DX009 (ip), vehicle: saline 115 % of control

CC(=O)Nc1ncnc2c1ncn2C1OC(COC(C)=O)C(NC(=O)C(F)(F)F)C1OC(C)=O (centres undefined)
inactive: endpoint: median survival time, dose: 12.5 mg/kg/injection, schedule: Q01DX005 (ip), vehicle: alkali diluted with saline 109 % of control | endpoint: median survival time, dose: 25.0 mg/kg/injection, schedule: Q01DX005 (ip), vehicle: alkali diluted with saline 102 % of control | endpoint: median survival time, dose: 50.0 mg/kg/injection, schedule: Q01DX005 (ip), vehicle: alkali diluted with saline 109 % of control | endpoint: median survival time, dose: 100.0 mg/kg/injection, schedule: Q01DX005 (ip), vehicle: alkali diluted with saline 107 % of control | endpoint: median survival time, dose: 200.0 mg/kg/injection, schedule: Q01DX005 (ip), vehicle: alkali diluted with saline 106 % of control

Cc1csc2nc[nH]c(=O)c12
inactive: [4] 97 % of control | endpoint: mean survival time, dose: 200.0 mg/kg/injection, schedule: Q01DX009 (ip), vehicle: saline with Tween-80 98 % of control | endpoint: mean survival time, dose: 400.0 mg/kg/injection, schedule: Q01DX009 (ip), vehicle: saline with Tween-80 105 % of control

CC(=O)Oc1c(Br)c(-c2cc([N+](=O)[O-])c(C)c([N+](=O)[O-])c2C)c(OC(C)=O)c(Br)c1-c1cc([N+](=O)[O-])c(C)c([N+](=O)[O-])c1C
inactive: [1] 93 % of control | [2] 93 % of control | [3] 87 % of control

O=S(=O)(O)c1ccc(-c2nnc(-c3ccccn3)nc2-c2ccc(S(=O)(=O)O)cc2)cc1
inactive: endpoint: mean survival time, dose: 100.0 mg/kg/injection, schedule: Q01DX009 (ip), vehicle: saline sonified 96 % of control | endpoint: mean survival time, dose: 100.0 mg/kg/injection, schedule: Q04DX003 (ip), vehicle: saline 97 % of control | endpoint: mean survival time, dose: 200.0 mg/kg/injection, schedule: Q01DX009 (ip), vehicle: saline sonified 98 % of control | endpoint: mean survival time, dose: 200.0 mg/kg/injection, schedule: Q04DX003 (ip), vehicle: saline 97 % of control | endpoint: mean survival time, dose: 400.0 mg/kg/injection, schedule: Q01DX009 (ip), vehicle: saline sonified 94 % of control | endpoint: mean survival time, dose: 400.0 mg/kg/injection, schedule: Q04DX003 (ip), vehicle: saline 92 % of control

NC(=O)c1cn(C2OC(CO)C(O)C2O)c2nc(N)nc(N)c2c1=O (centres undefined)
inactive: endpoint: mean survival time, dose: 12.5 mg/kg/injection, schedule: Q01DX005 (ip), vehicle: water 104 % of control | endpoint: mean survival time, dose: 25.0 mg/kg/injection, schedule: Q01DX005 (ip), vehicle: water 104 % of control | endpoint: mean survival time, dose: 50.0 mg/kg/injection, schedule: Q01DX005 (ip), vehicle: water 104 % of control | endpoint: mean survival time, dose: 100.0 mg/kg/injection, schedule: Q01DX005 (ip), vehicle: water 124 % of control | endpoint: median survival time, dose: 50.0 mg/kg/injection, schedule: Q01DX005 (ip), vehicle: saline with Tween-80 103 % of control and 107 % of control | endpoint: median survival time, dose: 100.0 mg/kg/injection, schedule: Q01DX005 (ip), vehicle: saline with Tween-80 105 % of control and 110 % of control | endpoint: median survival time, dose: 200.0 mg/kg/injection, schedule: Q01DX005 (ip), vehicle: saline with Tween-80 115 % of control and 106 % of control | endpoint: median survival time, dose: 400.0 mg/kg/injection, schedule: Q01DX005 (ip), vehicle: saline with Tween-80 117 % of control
